Values after ≈ are worked out from the molar mass of the structure shown. Values joined by “and” are separate entries in the source; they are usually repeats but may differ in a detail not shown here. Identical values can stand only once.
What was measured:
[1] = Saturation solubility of metolazone in TBA:water ratios; type: physicochemical; conditions: for solubility: aqueous with cosolvent or surfactant or cyclodextrin, thermodynamic from solid
Procedure: Saturation solubility study of metolazone was conducted in different water to tertiary butyl alcohol ratios ranging from 20-40% of TBA and 80-60% water. The study was conducted in triplicate.

[2] = 25° C.; cited from earlier work
[3] = Diluent selection study: solubility of metolazone in diluent mixtures; type: physicochemical
Procedure: The diluent selection study was conducted to select the best diluent combination for metolazone. The following components were evaluated in combination with phosphate buffer to check the solubility of metolazone and to observe the solution clarity.
Procedure for Example no ITT-1 to 111-5: An excess amount of drug substance PSD (particle size distribution) 10 micron (60 mg) was added to the 20 mL diluent mixtures specified in Ex. III-1 to II-5 so that the theoretical concentration was 3 mg/mL. After drug addition, these samples were sonicated up to 4 hr using a sonicator at room temperature. Solution clarity and quantitative solubility were observed.

[4] = Tertiary butyl alcohol-water solubility trials (visual); type: physicochemical
Procedure: Before initiating solvent based Lyophilization trials, a detail assessment of metolazone solubility in Water+TBA (Tertiary butyl alcohol) was carried out to identify optimum ratio of TBA:Water.

Cc1ccccc1N1C(=O)c2cc(S(N)(=O)=O)c(Cl)cc2NC1C (centres unmarked) [Metolazone, 7-chloro-1,2,3,4-tetrahydro-2-methyl-3-(2-methylphenyl)-4-oxo-6-quinazoline sulfonamide]
Solubility of each trial ([1]; 028A: 20% Tertiary butyl alcohol and 80% water mixture [20:80]): 289 µg/mL and 281 µg/mL | Solubility of each trial ([1]; 028B: 30% Tertiary butyl alcohol and 70% water mixture [30:70]): 948 µg/mL and 1044 µg/mL | Solubility of each trial ([1]; 028C: 40% Tertiary butyl alcohol and 60% water mixture [40:60]): 2122 µg/mL and 2025 µg/mL | slope of metolazone solubility versus TBA fraction in solvent ([1]; FIG. 4): 0.0913 | solubility ([1]; tertiary butyl alcohol/water mixture, 028A: 20% Tertiary butyl alcohol and 80% water mixture [20:80], read-out: Average solubility): 279 µg/mL | solubility ([1]; tertiary butyl alcohol/water mixture, 028A: 20% Tertiary butyl alcohol and 80% water mixture [20:80], read-out: Solubility of each trial): 267 µg/mL | solubility ([1]; tertiary butyl alcohol/water mixture, 028B: 30% Tertiary butyl alcohol and 70% water mixture [30:70], read-out: Average solubility): 1010 µg/mL | solubility ([1]; tertiary butyl alcohol/water mixture, 028B: 30% Tertiary butyl alcohol and 70% water mixture [30:70], read-out: Solubility of each trial): 1050 µg/mL | solubility ([1]; tertiary butyl alcohol/water mixture, 028C: 40% Tertiary butyl alcohol and 60% water mixture [40:60], read-out: Average solubility): 2110 µg/mL | solubility ([1]; tertiary butyl alcohol/water mixture, 028C: 40% Tertiary butyl alcohol and 60% water mixture [40:60], read-out: Solubility of each trial): 2170 µg/mL | solubility ([1]; tertiary butyl alcohol/water mixtures, TBA:water in the ratio of 30:70 to 40:60, read-out: solubility in solvent (TBA:water)): > 1000 µg/mL | solubility in ethanol [2]: 9000 µg/mL (≈ 24.6 mM) | solubility ([3]; 40% PEG in buffer, aqueous with cosolvent or surfactant or cyclodextrin, thermodynamic from solid, 40% PEG in all tested buffers, API with particle size D90<10 microns, read-out: solubility): > 1200 µg/mL | solubility ([3]; 40% PEG-400 and 0.4% Kolliphor HS-15 in Tris buffer, pH 7.5, aqueous with cosolvent or surfactant or cyclodextrin, thermodynamic from solid, Ex: III-4, 031D: 40% PEG-400 + Kolliphor HS-15 0.4% + Tris buffer pH 7.5, read-out: Solubility): 2310 µg/mL | solubility ([3]; 40% PEG-400 and 0.4% Kolliphor HS-15 in phosphate buffer, pH 7.5, aqueous with cosolvent or surfactant or cyclodextrin, thermodynamic from solid, Ex: III-3, 031C: 40% PEG-400 + Kolliphor HS-15 0.4% + Phosphate buffer pH 7.5, read-out: Solubility): 2160 µg/mL | solubility ([3]; 40% PEG-400 in Tris buffer, pH 7.5, aqueous with cosolvent or surfactant or cyclodextrin, thermodynamic from solid, Ex: III-2, 031B: 40% PEG-400 + Tris buffer pH 7.5, read-out: Solubility): 1280 µg/mL | solubility ([3]; 40% PEG-400 in phosphate buffer, pH 7.5, aqueous with cosolvent or surfactant or cyclodextrin, thermodynamic from solid, Ex: III-1, 031A: 40% PEG-400 + Phosphate buffer pH 7.5, API PSD 10 micron, sonicated up to 4 hr, room temperature, read-out: Solubility): 1800 µg/mL | solubility ([3]; Ex: III-1, 031A: 40% PEG-400 + Phosphate buffer pH 7.5, API PSD 10 micron, sonicated up to 4 hr, room temperature): 1862 µg/mL | solubility ([3]; tertiary butyl alcohol/water for injection mixture, aqueous with cosolvent or surfactant or cyclodextrin, thermodynamic from solid, Ex: III-5, 031E: 50% Tertiary butyl alcohol and 50% Water for injection, read-out: Solubility): 3120 µg/mL | Observations ([4]; Trial 1: WFI, 5.04 mg metolazone, Q.S. to 10 mL): Insoluble | Observations ([4]; Trial 2: 20% TBA, 10.08 mg metolazone, Q.S. to 20 mL): opalescent | Observations ([4]; Trial 3: 30% TBA, 15.12 mg metolazone, Q.S. to 20 mL): clear | Observations ([4]; Trial 4: 40% TBA, 30.24 mg metolazone, Q.S. to 20 mL): clear | Observations ([4]; Trial 5: 50% TBA, 30.24 mg metolazone, Q.S. to 20 mL): clear | Observations ([4]; Trial 6: 60% TBA, 30.24 mg metolazone, Q.S. to 20 mL): clear | Observations ([4]; Trial 7: 30% TBA, 20.16 mg metolazone, Q.S. to 20 mL): clear

Reference: patent publication US20250032417A1, “LYOPHILIZED METOLAZONE FORMULATION FOR PARENTERAL ADMINISTRATION” (Hyloris Developments SA, priority 2023, published 2025)
